The values that follow come from patent US8008296B2, “Histamine H3 receptor agents, preparation and therapeutic uses” (Eli Lilly and Company, priority 2005, dated 2011).

The structures appear in SMILES notation.

In this experiment the target is T1, human histamine 3 receptor (H3R) (Homo sapiens, UniProt Q9Y5N1).
T1 construct: expressed in transfected cells; membranes
Put plainly: Histamine H3 Receptor Binding Assay (competitive inhibition SPA, [3H] α-methylhistamine, HEK293 H3R8 membranes). The text has this: The compounds of the present invention can readily be evaluated by using a competitive inhibition Scintillation Proximity Assay (SPA) based on a H3R binding assay using [3H] a methylhistamine as ligand. Stable cell lines, including but not limited to HEK can be transfected with cDNA coding for H3R to prepare membranes used for the binding assay. The technique is illustrated below (Preparation of Histamine Receptor Subtype Membranes) for the histamine receptor subtypes.
cDNA for the human histamine 3 receptor is cloned and expressed as described in (A. Preparation H1R membranes), above. Transfected cells are selected using G418 ([…]), grown, and tested for histamine binding by the SPA described above. For total binding, cells are assayed in a SPA reaction described above containing 50 mM Tris-HCL (assay buffer), pH 7.6, 1 mg wheat germ agglutinin SPA beads (Amersham Pharmacia Biotech, #RPNQ0001), and 1 nM (3H)-n-alpha-methylhistamine (NEN, NET1027) (total volume per well=200 μl). Thioperimide is added to determine non-specific binding. Several clones are selected as positive for binding, and a single clone (H3R8) is used to prepare membranes for binding studies described above. Five micrograms of protein is used per well in the SPA receptor-binding assay. […]

T1 sequence (Q9Y5N1 whole entry): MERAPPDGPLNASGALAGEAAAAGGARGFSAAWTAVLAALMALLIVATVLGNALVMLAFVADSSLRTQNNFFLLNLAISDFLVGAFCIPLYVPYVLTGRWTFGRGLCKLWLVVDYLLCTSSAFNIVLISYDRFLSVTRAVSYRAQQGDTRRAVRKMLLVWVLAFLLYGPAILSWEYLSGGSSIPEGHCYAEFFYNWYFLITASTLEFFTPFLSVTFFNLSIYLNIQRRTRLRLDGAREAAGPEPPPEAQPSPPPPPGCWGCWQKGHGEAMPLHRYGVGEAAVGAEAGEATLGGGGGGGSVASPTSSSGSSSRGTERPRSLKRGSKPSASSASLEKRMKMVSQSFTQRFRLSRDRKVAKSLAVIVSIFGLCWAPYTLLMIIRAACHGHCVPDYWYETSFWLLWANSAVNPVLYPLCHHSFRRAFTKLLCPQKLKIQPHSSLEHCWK

Regarding `CCCCNc1ccc(C(=O)N2CCCC2CN2CCCC2)cc1` (centres unmarked), the Ki (usually a measure of affinity in units of concentration, obtained from inhibition or displacement) stood at 0.0216 µM.

In turn, `O=C(c1ccc(Sc2ccncn2)cc1)N1CCCC1CN1CCCC1` (centres unmarked) yielded an inhibition constant Ki of 0.0117 µM.
